Laboratory results taken from patent US20230102554A1 (GB002, INC., priority 2019, published 2023).

Tests used:
[1] = target: T1, Human PDGFRα, cytoplasmic domain (GST-PDGFRα) (Homo sapiens, UniProt P16234); assay: Human PDGFRα biochemical inhibition assay (off-chip Mobility Shift Assay)
T1 construct: made in house

[2] = target: T2, Human PDGFRβ, cytoplasmic domain (GST-PDGFRβ) (Homo sapiens, UniProt P09619); assay: Human PDGFRβ biochemical inhibition assay (off-chip Mobility Shift Assay)
T2 construct: made in house
Outline: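 GST-tagged cytoplasmic domain (aa 557-1106) from baculovirus was incubated 1 h at room temperature with compound, CSKtide, ATP at Km and Mg²⁺ in HEPES buffer, pH 7.5. Phosphorylated and unphosphorylated peptide were separated by off-chip mobility shift, and the product ratio P/(P+S) gave percent inhibition.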

T1 sequence (P16234 550-1089 T674I): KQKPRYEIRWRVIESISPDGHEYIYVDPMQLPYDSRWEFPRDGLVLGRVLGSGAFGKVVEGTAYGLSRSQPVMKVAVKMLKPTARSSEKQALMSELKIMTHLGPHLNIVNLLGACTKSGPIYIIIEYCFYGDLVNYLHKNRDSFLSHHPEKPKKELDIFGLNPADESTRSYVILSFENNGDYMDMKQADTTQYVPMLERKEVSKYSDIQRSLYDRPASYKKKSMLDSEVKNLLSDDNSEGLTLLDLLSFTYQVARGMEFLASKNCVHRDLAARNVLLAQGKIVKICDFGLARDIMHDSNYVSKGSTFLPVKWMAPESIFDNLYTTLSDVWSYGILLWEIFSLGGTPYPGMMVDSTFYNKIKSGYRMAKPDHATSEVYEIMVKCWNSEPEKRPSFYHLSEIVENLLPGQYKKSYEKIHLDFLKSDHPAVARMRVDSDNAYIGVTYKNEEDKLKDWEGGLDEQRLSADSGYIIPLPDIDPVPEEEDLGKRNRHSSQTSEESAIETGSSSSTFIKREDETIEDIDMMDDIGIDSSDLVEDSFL
T2 sequence (P09619 with tags, fused parts or gaps): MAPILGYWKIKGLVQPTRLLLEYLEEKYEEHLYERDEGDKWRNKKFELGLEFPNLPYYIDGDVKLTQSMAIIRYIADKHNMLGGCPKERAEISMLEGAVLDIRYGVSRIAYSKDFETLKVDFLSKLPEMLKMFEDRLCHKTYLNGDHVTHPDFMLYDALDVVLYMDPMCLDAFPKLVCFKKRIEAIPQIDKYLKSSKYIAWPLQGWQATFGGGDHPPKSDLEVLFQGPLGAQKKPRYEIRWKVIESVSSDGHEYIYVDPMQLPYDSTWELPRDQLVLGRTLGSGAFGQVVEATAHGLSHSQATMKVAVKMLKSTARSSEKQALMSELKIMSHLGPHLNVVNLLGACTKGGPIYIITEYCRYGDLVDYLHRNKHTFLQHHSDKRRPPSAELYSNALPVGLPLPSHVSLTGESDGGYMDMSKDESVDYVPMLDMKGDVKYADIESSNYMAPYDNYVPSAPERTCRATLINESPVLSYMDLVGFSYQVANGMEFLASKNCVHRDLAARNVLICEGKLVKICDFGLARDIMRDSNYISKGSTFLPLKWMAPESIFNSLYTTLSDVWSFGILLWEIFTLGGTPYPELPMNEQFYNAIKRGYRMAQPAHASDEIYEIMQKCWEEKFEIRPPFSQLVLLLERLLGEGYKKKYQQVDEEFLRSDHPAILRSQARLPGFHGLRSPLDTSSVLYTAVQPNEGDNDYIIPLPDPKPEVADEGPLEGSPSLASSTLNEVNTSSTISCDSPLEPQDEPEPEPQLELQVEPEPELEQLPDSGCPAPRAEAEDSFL

CCn1cc2ncc(N[C@@H](C)c3cc(NC(=O)c4ccc(C(F)(F)F)nc4)ccc3C(F)(F)F)nc2n1 [Compound 459, (S)-N-(3-(1-((2-ethyl-2H-pyrazolo[3,4-b]pyrazin-6-yl)amino)ethyl)-4-(trifluoromethyl)phenyl)-6-(trifluoromethyl) nicotinamide]
IC50 [1]: ≥ 1000 nM | IC50 [2]: ≥ 1000 nM

CCn1cc2ncc(N[C@@H](C)c3cccc(NC(=O)Nc4ccc(NC)nc4)c3)nc2n1 [Compound 738, (S)-1-(3-(1-((2-ethyl-2H-pyrazolo[3,4-b]pyrazin-6-yl)amino)ethyl)phenyl)-3-(6-(methylamino)pyridin-3-yl)urea]
IC50 [1]: 300 to 1000 nM | IC50 [2]: ≥ 1000 nM

C[C@H](Nc1cnc2cnn(C)c2n1)c1cccc(NC(=O)c2ccc3c(c2)COC3=O)c1 [Compound 67, (S)-N-(3-(1-((1-methyl-1H-pyrazolo[3,4-b]pyrazin-6-yl)amino)ethyl)phenyl)-1-oxo-1,3-dihydroisobenzofuran-5-carboxamide]
IC50 [1]: < 300 nM | IC50 [2]: < 300 nM

Cc1n[nH]c2ncc(N[C@@H](C)c3cccc(NC(=O)c4cc(C(C)C)on4)c3)nc12 [Compound 542, (S)-5-isopropyl-N-(3-(1-((3-methyl-1H-pyrazolo[3,4-b]pyrazin-5-yl)amino)ethyl)phenyl)isoxazole-3-carboxamide]
IC50 [1]: < 300 nM | IC50 [2]: < 300 nM

CCOc1ncc(C(=O)Nc2ccc(F)c([C@H](C)Nc3cnc4cn(CC)nc4n3)c2)cc1C [Compound 316, (S)-6-ethoxy-N-(3-(1-((2-ethyl-2H-pyrazolo[3,4-b]pyrazin-6-yl)amino)ethyl)-4-fluorophenyl)-5-methylnicotinamide]
IC50 [1]: < 300 nM | IC50 [2]: < 300 nM

COc1ccc(C(=O)Nc2cccc([C@H](C)Nc3cnc4cnn(C)c4n3)c2)cc1F [Compound 189, (S)-3-fluoro-4-methoxy-N-(3-(1-((1-methyl-1H-pyrazolo[3,4-b]pyrazin-6-yl)amino)ethyl)phenyl)benzamide]
IC50 [1]: < 300 nM | IC50 [2]: < 300 nM

CCn1cc2ncc(N[C@@H](C)c3cccc(NC(=O)c4ccc(CN5CCOCC5)c(Cl)c4)c3)nc2n1 [Compound 416, (S)-3-chloro-N-(3-(1-((2-ethyl-2H-pyrazolo[3,4-b]pyrazin-6-yl)amino)ethyl)phenyl)-4-(morpholinomethyl)benzamide]
IC50 [1]: < 300 nM | IC50 [2]: < 300 nM

Cc1cncc(C(=O)Nc2cccc([C@H](C)Nc3cnn4cc(-c5cnn(C)c5)ccc34)c2)c1 [Compound 746, (S)-5-methyl-N-(3-(1-((6-(1-methyl-1H-pyrazol-4-yl)pyrazolo[1,5-a]pyridin-3-yl)amino)ethyl)phenyl) nicotinamide]
IC50 [1]: < 300 nM | IC50 [2]: < 300 nM

CCn1cc2ncc(N[C@@H](C)c3cccc(NC(=O)c4ccc(OC(C)C)nc4)c3)nc2n1 [Compound 287, (S)-N-(3-(1-((2-ethyl-2H-pyrazolo[3,4-b]pyrazin-6-yl)amino)ethyl)phenyl)-6-isopropoxynicotinamide]
IC50 [1]: < 300 nM | IC50 [2]: < 300 nM

Cc1cc(C(=O)Nc2cccc([C@H](C)Nc3cnc4cnn(C)c4n3)c2)ccc1C(=O)OCCN [Compound 266, 2-aminoethyl (S)-2-methyl-4-((3-(1-((1-methyl-1H-pyrazolo[3,4-b]pyrazin-6-yl)amino)ethyl)phenyl)carbamoyl) benzoate]
IC50 [1]: < 300 nM | IC50 [2]: < 300 nM

CCn1cc2ncc(N[C@@H](C)c3cccc(NC(=O)c4ccc(N5CCNCC5)nc4)c3)nc2n1 [Compound 397, (S)-N-(3-(1-((2-ethyl-2H-pyrazolo[3,4-b]pyrazin-6-yl)amino)ethyl)phenyl)-6-(piperazin-1-yl)nicotinamide]
IC50 [1]: 300 to 1000 nM | IC50 [2]: ≥ 1000 nM

CCn1cc2ncc(N[C@@H](C)c3cc(NC(=O)c4cnc(OCC5CC5)c(C)c4)ccc3F)nc2n1 [Compound 318, (S)-6-(cyclopropylmethoxy)-N-(3-(1-((2-ethyl-2H-pyrazolo[3,4-b]pyrazin-6-yl)amino)ethyl)-4-fluorophenyl)-5-methylnicotinamide]
IC50 [1]: < 300 nM | IC50 [2]: < 300 nM

Cc1cncc(C(=O)Nc2cccc([C@H](C)Nc3cnc4ccc(C5CC5)cc4n3)c2)c1 [Compound 41, (S)-N-(3-(1-((7-cyclopropylquinoxalin-2-yl)amino)ethyl)phenyl)-5-methylnicotinamide]
IC50 [1]: < 300 nM | IC50 [2]: < 300 nM

CCn1cc2ncc(N[C@@H](C)c3cc(NC(=O)Cc4ccc(C5CC5)nc4)ccc3F)nc2n1 [Compound 658, (S)-2-(6-cyclopropylpyridin-3 - yl)-N-(3-(1-((2-ethyl-2H-pyrazolo[3,4-b]pyrazin-6-yl)amino)ethyl)-4-fluorophenyl) acetamide]
IC50 [1]: 300 to 1000 nM | IC50 [2]: ≥ 1000 nM

CCn1cc2ncc(N[C@@H](C)c3cc(NC(=O)c4ccc(OC5CCN(C)CC5)c(Cl)c4)ccc3F)nc2n1 [Compound 430, (S)-3-chloro-N-(3-(1-((2-ethyl-2H-pyrazolo[3,4-b]pyrazin-6-yl)amino)ethyl)-4-fluorophenyl)-4-((1-methylpiperidin-4-yl)oxy)benzamide]
IC50 [1]: < 300 nM | IC50 [2]: < 300 nM

C[C@H](Nc1cnc2cnn(C)c2n1)c1cccc(NC(=O)c2ccc(C(F)(F)F)s2)c1 [Compound 137, (S)-N-(3-(1-((1-methyl-1H-pyrazolo[3,4-b]pyrazin-6-yl)amino)ethyl)phenyl)-5-(trifluoromethyl)thiophene-2-carboxamide]
IC50 [1]: < 300 nM | IC50 [2]: < 300 nM

CC(C)n1cc(C(=O)Nc2cccc([C@H](C)Nc3cnc4cn[nH]c4n3)c2)cn1 [Compound 100, (S)-N-(3-(1-((1H-pyrazolo[3,4-b]pyrazin-6-yl)amino)ethyl)phenyl)-1-isopropyl-1H-pyrazole-4-carboxamide]
IC50 [1]: < 300 nM | IC50 [2]: < 300 nM

CSc1ccc(C(=O)Nc2cccc([C@H](C)Nc3cnc4cnn(C)c4n3)c2)cc1SC [Compound 269, (S)-N-(3-(1-((1-methyl-1H-pyrazolo[3,4-b]pyrazin-6-yl)amino)ethyl)phenyl)-3,4-bis(methylthio)benzamide]
IC50 [1]: < 300 nM | IC50 [2]: < 300 nM

CCn1cc2ncc(N[C@@H](C)c3cccc(NC(=O)c4ccc(CN5CC[C@H](O)C5)c(C)c4)c3)nc2n1 [Compound 471, N-(3-((S)-1-((2-ethyl-2H-pyrazolo[3,4-b]pyrazin-6-yl)amino)ethyl)phenyl)-4-(((S)-3-hydroxypyrrolidin-1-yl)methyl)-3-methylbenzamide]
IC50 [1]: 300 to 1000 nM | IC50 [2]: ≥ 1000 nM

CCn1cc2ncc(N[C@@H](C)c3cc(NC(=O)c4cnc(N5CCN(C)CC5)c(Cl)c4)ccc3F)nc2n1 [Compound 456, (S)-5-chloro-N-(3-(1-((2-ethyl-2H-pyrazolo[3,4-b]pyrazin-6-yl)amino)ethyl)-4-fluorophenyl)-6-(4-methylpiperazin-1-yl) nicotinamide]
IC50 [1]: < 300 nM | IC50 [2]: < 300 nM

Cc1cc(C(=O)Nc2cccc([C@H](C)Nc3cnc4[nH]nc(C)c4n3)c2)cnc1C(F)(F)F [Compound 538, (S)-5-methyl-N-(3-(1-((3-methyl-1H-pyrazolo[3,4-b]pyrazin-5-yl)amino)ethyl)phenyl)-6-(trifluoromethyl) nicotinamide]
IC50 [1]: < 300 nM | IC50 [2]: < 300 nM

C[C@H](Nc1cnc2cnn(C)c2n1)c1cccc(NC(=O)c2cc(C(C)(C)C)n(C)n2)c1 [Compound 166, (S)-5-(tert-butyl)-1-methyl-N-(3-(1-((1-methyl-1H-pyrazolo[3,4-b]pyrazin-6-yl)amino)ethyl)phenyl)-1H-pyrazole-3-carboxamide]
IC50 [1]: < 300 nM | IC50 [2]: < 300 nM

Cc1n[nH]c2ncc(N[C@@H](C)c3cccc(NC(=O)c4cncc(C(F)F)c4)c3)nc12 [Compound 532, (S)-5-(difluoromethyl)-N-(3-(1-((3-methyl-1H-pyrazolo[3,4-b]pyrazin-5-yl)amino)ethyl)phenyl)nicotinamide]
IC50 [1]: < 300 nM | IC50 [2]: < 300 nM

CCn1cc2ncc(N[C@@H](C)c3cccc(NC(=O)Nc4cc(C)ccn4)c3)nc2n1 [Compound 735, (S)-1-(3-(1-((2-ethyl-2H-pyrazolo[3,4-b]pyrazin-6-yl)amino)ethyl)phenyl)-3-(4-methylpyridin-2-yl)urea]
IC50 [1]: < 300 nM | IC50 [2]: < 300 nM

Cc1cncc(C(=O)Nc2cccc([C@H](C)Nc3cnc4cnn(C5CCOCC5)c4n3)c2)c1 [Compound 180, (S)-5-methyl-N-(3-(1-((1-(tetrahydro-2H-pyran-4-yl)-1H-pyrazolo[3,4-b]pyrazin-6-yl)amino)ethyl)phenyl) nicotinamide]
IC50 [1]: 300 to 1000 nM | IC50 [2]: ≥ 1000 nM

CCn1cc2ncc(N[C@@H](C)c3cc(NC(=O)Cc4ccc(C(F)(F)F)cn4)ccc3C)nc2n1 [Compound 661, (S)-N-(3-(1-((2-ethyl-2H-pyrazolo[3,4-b]pyrazin-6-yl)amino)ethyl)-4-methylphenyl)-2-(5-(trifluoromethyl)pyridin-2-yl)acetamide]
IC50 [1]: < 300 nM | IC50 [2]: 300 to 1000 nM

CC(C)c1cc(C(=O)Nc2cccc([C@H](C)Nc3cnc4cnn(C)c4n3)c2)no1 [Compound 142, (S)-5-isopropyl-N-(3-(1-((1-methyl-1H-pyrazolo[3,4-b]pyrazin-6-yl)amino)ethyl)phenyl)isoxazole-3-carboxamide]
IC50 [1]: < 300 nM | IC50 [2]: < 300 nM

C[C@H](Nc1cnc2[nH]cc(-c3cnn(C)c3)c2n1)c1cccc(NC(=O)c2cc(C(F)(F)F)nn2C)c1 [Compound 584, (S)-1-methyl-N-(3-(1-((7-(1-methyl-1H-pyrazol-4-yl)-5H-pyrrolo[2,3-b]pyrazin-2-yl)amino)ethyl)phenyl)-3-(trifluoromethyl)-1H-pyrazole-5-carboxamide]
IC50 [1]: 300 to 1000 nM | IC50 [2]: 300 to 1000 nM

Cc1c[nH]c2ncc(N[C@@H](C)c3cccc(NC(=O)c4cc(C(C)C)on4)c3)nc12 [Compound 554, (S)-5-isopropyl-N-(3-(1-((7-methyl-5H-pyrrolo[2,3-b]pyrazin-2-yl)amino)ethyl)phenyl)isoxazole-3-carboxamide]
IC50 [1]: < 300 nM | IC50 [2]: < 300 nM
